From patent publication EP0479121A1, “Skin treatment compositions containing beta-phosphatidyl choline derivatives” (FIDIA S.p.A., priority 1990, dated 1992)

How the values were obtained:
stratum corneum = assay: In vivo hydration tests on human volunteers, Corneometer (Test 3); conditions: 50 mg cream on volar forearm (20 cm²), average of 10 subjects, lower numbers = higher hydration, before application 241±21; for Measured hydration values, 30': 30 min after application; for Measured hydration values, 150': 150 min after application; for Measured hydration values, 270': 270 min after application
Experimental: The hydration tests were conducted using a Corneometer laboratory instrument equipped with a capacitive probe able to measure the moisture present on the stratum corneum. To conduct the test, 50 mg of standard cream and cream containing the various synthetic β-lecithins prepared as Examples 1 and 2 are applied to the volar surface of the forearm (20 cm² ) with light circular massage.
The hydration measurements were taken before applying the product and 30 min, 150 min and 270 min after its application. The hydration values are expressed in arbitrary units deriving from electrical impedance measurements on the cutaneous surface. Although the values are relative they are in inverse linear relationship to the absolute water quantity present in the cutaneous layer of the skin (lower numbers correspond to higher hydration).

[1] = Emulsion stability under centrifuging at 6000 r.p.m. (Test 2); type: physicochemical; conditions: 250 mg in 10 g water added to 90 g standard emulsion, phase separation noted
Experimental: To evaluate the influence of β-phosphatidyl choline derivatives on emulsion stability, a standard emulsion was prepared having the following composition (Table 2):
The aqueous phase heated to 70°C is slowly added to the oil phase heated to 75°C. Rapid agitation is effected by a Silverson laboratory mixer equipped with an emulsifying head and is continued for about 30 minutes, slowly cooling the formed emulsion to ambient temperature.
250 mg of each of the considered β-lecithins dispersed or dissolved in 10 g of water are added under slow agitation to 90 g of the standard emulsion obtained.
The resultant emulsions are tested for stability by subjecting them to centrifuging at 6000 r.p.m. for 10, 30 and 60 minutes respectively, and by storing them under temperature control at 45°C for 72 hours. In both cases the stability is evaluated by noting any phase separation.

| Structure (SMILES) | Measured hydration values, 30' (stratum corneum) [arbitrary units] | Measured hydration values, 150' (stratum corneum) [arbitrary units] | Measured hydration values, 270' (stratum corneum) [arbitrary units] | Stability under centrifuging at 6000 r.p.m., 10 min ([1]; 10 min) | Stability under centrifuging at 6000 r.p.m., 30 min ([1]; 30 min) | Stability under centrifuging at 6000 r.p.m., 60 min ([1]; 60 min) |
| --- | --- | --- | --- | --- | --- | --- |
| COc1cc(C(=O)OCC(COC(=O)c2cc(OC)c(OC)c(OC)c2)OP(=O)([O-])OCC[N+](C)(C)C)cc(OC)c1OC [PCS5, 1,3-di(3,4,5-trimethoxybenzoyl)glycero-2-phosphoryl choline] | 124±14 | 144±16 | 177±15 | – | – | – |
| CCCCCCCCCCCCCCCC(=O)OCC(COC(=O)CCCCCCCCCCCCCCC)OP(=O)([O-])OCC[N+](C)(C)C [PCS1, 1,3-dipalmitoylglycero-2-phosphoryl choline] | 165±10 | 195±15 | 213±15 | Stable | Stable | Stable |
| CCCCCCCCCCCCCCCCCC(=O)OCC(COC(=O)CCCCCCCCCCCCCCCCC)OP(=O)([O-])OCC[N+](C)(C)C [PCS4, 1,3-distearoylglycero-2-phosphoryl choline] | 132±12 | 161±11 | 180±12 | – | – | – |
| CC(C)(C)C(=O)OCC(COC(=O)C(C)(C)C)OP(=O)([O-])OCC[N+](C)(C)C [PCS3, 1,3-dipivaloylglycero-2-phosphoryl choline] | 157±7 | 193±13 | 206±9 | – | – | – |
| CCCCCCCCCCCCCC(=O)OCC(COC(=O)CCCCCCCCCCCCC)OP(=O)([O-])OCC[N+](C)(C)C [PCS2, 1,3-dimyristoylglycero-2-phosphoryl choline] | 147±11 | 175±10 | 195±9 | – | – | – |
